Earlier results as cited in patent US20250144314A1, “VITAMIN K1 INJECTION DEVICE KIT” (ORBICULAR PHARMACEUTICAL TECHNOLOGIES PRIVATE LIMITED, priority 2022, published 2025).

Details: estimate

absorbed vitamin K excreted from the body: over 60%
Compound: CC1=C(C/C=C(\C)CCC[C@H](C)CCC[C@H](C)CCCC(C)C)C(=O)c2ccccc2C1=O [vitamin K, Phytonadione]
